Results published in patent publication US20100137313A1 (ASTRAZENECA AB, priority 2008, published 2010).

Molecular target: S. pneumoniae Topoisomerase IV ATPase (ParE) (Streptococcus pneumoniae serotype 4, UniProt Q59961)
Test: S. pneumoniae Topoisomerase IV ATPase inhibition
Format: biochemical
Conditions: values marked * are an average of two or more data points, read-out: % Inh (13 μM) of S. pneumoniae Topoisomerase IV ATPase
How it was run: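 S. pneumoniae ParE (1.25 nM) ATPase with 160 μM ATP and 5 μg/ml sheared DNA in pH 8.0 Tris, Mg2+, DTT, Brij-35; phosphate detected by malachite green/molybdate at 650 nm. Normalised to 2% DMSO (0%) and 20 μM EDTA (100%); IC50 from 10 concentrations.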

S. pneumoniae Topoisomerase IV ATPase (ParE), sequence (Q59961 whole entry): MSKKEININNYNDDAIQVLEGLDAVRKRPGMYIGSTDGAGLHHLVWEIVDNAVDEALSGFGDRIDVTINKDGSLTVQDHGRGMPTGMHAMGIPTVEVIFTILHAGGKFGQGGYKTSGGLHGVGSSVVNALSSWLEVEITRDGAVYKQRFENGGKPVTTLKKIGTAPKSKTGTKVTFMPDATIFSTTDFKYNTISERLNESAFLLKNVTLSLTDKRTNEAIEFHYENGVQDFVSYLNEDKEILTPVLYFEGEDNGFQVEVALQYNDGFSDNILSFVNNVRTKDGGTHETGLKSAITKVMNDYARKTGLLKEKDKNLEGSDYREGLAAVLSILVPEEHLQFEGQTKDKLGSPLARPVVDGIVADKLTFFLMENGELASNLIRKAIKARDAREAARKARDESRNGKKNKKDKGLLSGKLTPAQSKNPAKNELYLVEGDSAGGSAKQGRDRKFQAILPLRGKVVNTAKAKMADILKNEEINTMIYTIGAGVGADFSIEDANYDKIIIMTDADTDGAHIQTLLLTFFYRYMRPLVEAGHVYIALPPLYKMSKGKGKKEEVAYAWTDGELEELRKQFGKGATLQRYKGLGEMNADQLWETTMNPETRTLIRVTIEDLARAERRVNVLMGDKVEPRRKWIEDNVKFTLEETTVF

NC(=O)c1cccc(Nc2ncc(-c3cccc(/C=C/C(=O)O)c3)c(-n3ccc(C(F)(F)F)n3)n2)c1 [Example 690, (2E)-3-(3-{2-[(3-carbamoylphenyl)amino]-4-[3-(trifluoromethyl)-1H-pyrazol-1-yl]pyrimidin-5-yl}phenyl)prop-2-enoic acid]
inhibition at 13 µM: 100%

N#Cc1cccc(Nc2ncc(-c3cccc(/C=C/C(=O)O)c3)c(-n3ccc(C(F)(F)F)n3)n2)c1 [Example 692, (2E)-3-(3-{2-[(3-cyanophenyl)amino]-4-[3-(trifluoromethyl)-1H-pyrazol-1-yl]pyrimidin-5-yl}phenyl)prop-2-enoic acid]
inhibition at 13 µM: 97%

Cc1cc(C(F)(F)F)nn1-c1nc(Nc2cccc(C#N)c2)ncc1-c1cccc(/C=C/C(=O)O)c1 [Example 693, (2E)-3-(3-{2-[(3-cyanophenyl)amino]-4-[5-methyl-3-(trifluoromethyl)-1H-pyrazol-1-yl]pyrimidin-5-yl}phenyl)prop-2-enoic acid]
inhibition at 13 µM: 97%

Cc1cccc(Nc2ncc(-c3cccc(/C=C/C(=O)O)c3)c(-n3ccc(C(F)(F)F)n3)n2)c1 [Example 694, (2E)-3-(3-{2-[(3-methylphenyl)amino]-4-[3-(trifluoromethyl)-1H-pyrazol-1-yl]pyrimidin-5-yl}phenyl)prop-2-enoic acid]
inhibition at 13 µM: 100%

Cc1cccc(Nc2ncc(-c3cccc(/C=C/C(=O)O)c3)c(-n3nc(C(F)(F)F)cc3C)n2)c1 [Example 695, (2E)-3-(3-{2-[(3-methylphenyl)amino]-4-[5-methyl-3-(trifluoromethyl)-1H-pyrazol-1-yl]pyrimidin-5-yl}phenyl)prop-2-enoic acid]
inhibition at 13 µM: 100%

Cc1cccc(Nc2ncc(-c3cncc(C(=O)O)c3)c(-n3nc(C(F)(F)F)cc3C)n2)c1 [Example 711, 5-{2-[(3-methylphenyl)amino]-4-[5-methyl-3-(trifluoromethyl)-1H-pyrazol-1-yl]pyrimidin-5-yl}pyridine-3-carboxylic acid]
inhibition at 13 µM: 100%

COc1ncc(-c2cnc(Nc3cccc(C(C)=O)c3)nc2-n2ccc(C(F)(F)F)n2)cc1C(=O)O [Example 720, 5-{2-[(3-acetylphenyl)amino]-4-[3-(trifluoromethyl)-1H-pyrazol-1-yl]pyrimidin-5-yl}-2-methoxypyridine-3-carboxylic acid]
inhibition at 13 µM: 100%

COc1ncc(-c2cnc(Nc3cccc(C(C)=O)c3)nc2-n2nc(C(F)(F)F)cc2C)cc1C(=O)O [Example 721, 5-{2-[(3-acetylphenyl)amino]-4-[5-methyl-3-(trifluoromethyl)-1H-pyrazol-1-yl]pyrimidin-5-yl}-2-methoxypyridine-3-carboxylic acid]
inhibition at 13 µM: 100%

COc1ncc(-c2cnc(Nc3cccc(C(N)=O)c3)nc2-n2ccc(C(F)(F)F)n2)cc1C(=O)O [Example 722, 5-{2-[(3-carbamoylphenyl)amino]-4-[3-(trifluoromethyl)-1H-pyrazol-1-yl]pyrimidin-5-yl}-2-methoxypyridine-3-carboxylic acid]
inhibition at 13 µM: 93%

COc1ncc(-c2cnc(Nc3cccc(C(N)=O)c3)nc2-n2nc(C(F)(F)F)cc2C)cc1C(=O)O [Example 723, 5-{2-[(3-carbamoylphenyl)amino]-4-[5-methyl-3-(trifluoromethyl)-1H-pyrazol-1-yl]pyrimidin-5-yl}-2-methoxypyridine-3-carboxylic acid]
inhibition at 13 µM: 94%

COc1ncc(-c2cnc(Nc3cccc(C)c3)nc2-n2ccc(C(F)(F)F)n2)cc1C(=O)O [Example 726, 2-methoxy-5-{2-[(3-methylphenyl)amino]-4-[3-(trifluoromethyl)-1H-pyrazol-1-yl]pyrimidin-5-yl}pyridine-3-carboxylic acid]
inhibition at 13 µM: 100%

COc1cc(C#N)cc(Nc2ncc(-c3cccc(/C=C/C(=O)O)c3)c(-n3ccc(C(F)(F)F)n3)n2)c1 [Example 728, (2E)-3-(3-{2-[(3-cyano-5-methoxyphenyl)amino]-4-[3-(trifluoromethyl)-1H-pyrazol-1-yl]pyrimidin-5-yl}phenyl)prop-2-enoic acid]
inhibition at 13 µM: 100%

COc1cc(C#N)cc(Nc2ncc(-c3cccc(/C=C/C(=O)O)c3)c(-n3nc(C(F)(F)F)cc3C)n2)c1 [Example 729, (2E)-3-(3-{2-[(3-cyano-5-methoxyphenyl)amino]-4-[5-methyl-3-(trifluoromethyl)-1H-pyrazol-1-yl]pyrimidin-5-yl}phenyl)prop-2-enoic acid]
inhibition at 13 µM: 89%

COc1cc(C#N)cc(Nc2ncc(-c3cncc(C(=O)O)c3)c(-n3ccc(C(F)(F)F)n3)n2)c1 [Example 732, 5-{2-[(3-cyano-5-methoxyphenyl)amino]-4-[3-(trifluoromethyl)-1H-pyrazol-1-yl]pyrimidin-5-yl}pyridine-3-carboxylic acid]
inhibition at 13 µM: 100%

COc1cc(C#N)cc(Nc2ncc(-c3cncc(C(=O)O)c3)c(-n3nc(C(F)(F)F)cc3C)n2)c1 [Example 733, 5-{2-[(3-cyano-5-methoxyphenyl)amino]-4-[5-methyl-3-(trifluoromethyl)-1H-pyrazol-1-yl]pyrimidin-5-yl}pyridine-3-carboxylic acid]
inhibition at 13 µM: 100%

COc1cc(C#N)cc(Nc2ncc(-c3cnc(OC)c(C(=O)O)c3)c(-n3ccc(C(F)(F)F)n3)n2)c1 [Example 736, 5-{2-[(3-cyano-5-methoxyphenyl)amino]-4-[3-(trifluoromethyl)-1H-pyrazol-1-yl]pyrimidin-5-yl}-2-methoxypyridine-3-carboxylic acid]
inhibition at 13 µM: 100%

COc1cc(C#N)cc(Nc2ncc(-c3cnc(OC)c(C(=O)O)c3)c(-n3nc(C(F)(F)F)cc3C)n2)c1 [Example 737, 5-{2-[(3-cyano-5-methoxyphenyl)amino]-4-[5-methyl-3-(trifluoromethyl)-1H-pyrazol-1-yl]pyrimidin-5-yl}-2-methoxypyridine-3-carboxylic acid]
inhibition at 13 µM: 97%

COc1ncc(-c2cnc(Nc3cccc(Cl)c3)nc2-n2ccc(C(F)(F)F)n2)cc1C(=O)O [Example 742, 5-{2-[(3-chlorophenyl)amino]-4-[3-(trifluoromethyl)-1H-pyrazol-1-yl]pyrimidin-5-yl}-2-methoxypyridine-3-carboxylic acid]
inhibition at 13 µM: 100%

COc1ncc(-c2cnc(Nc3cccc(Cl)c3)nc2-n2nc(C(F)(F)F)cc2C)cc1C(=O)O [Example 743, 5-{2-[(3-chlorophenyl)amino]-4-[5-methyl-3-(trifluoromethyl)-1H-pyrazol-1-yl]pyrimidin-5-yl}-2-methoxypyridine-3-carboxylic acid]
inhibition at 13 µM: 94%

Cc1cc(C(F)(F)F)nn1-c1nc(Nc2cccc(Cl)c2)ncc1-c1cncc(C(=O)O)c1 [Example 744, 5-{2-[(3-chlorophenyl)amino]-4-[5-methyl-3-(trifluoromethyl)-1H-pyrazol-1-yl]pyrimidin-5-yl}pyridine-3-carboxylic acid]
inhibition at 13 µM: 100%

COc1ncc(-c2cnc(Nc3cc(C)cc(F)c3)nc2-n2ccc(C(F)(F)F)n2)cc1C(=O)O [Example 754, 5-{2-[(3-fluoro-5-methylphenyl)-amino]-4-[3-(trifluoromethyl)-1H-pyrazol-1-yl]pyrimidin-5-yl}-2-methoxypyridine-3-carboxylic acid]
inhibition at 13 µM: 100%

COc1ncc(-c2cnc(Nc3cc(C)cc(F)c3)nc2-n2nc(C(F)(F)F)cc2C)cc1C(=O)O [Example 755, 5-{2-[(3-fluoro-5-methylphenyl)amino]-4-[5-methyl-3-(trifluoromethyl)-1H-pyrazol-1-yl]pyrimidin-5-yl}-2-methoxypyridine-3-carboxylic acid]
inhibition at 13 µM: 100%

COc1ncc(-c2cnc(Nc3cc(C)ccc3F)nc2-n2ccc(C(F)(F)F)n2)cc1C(=O)O [Example 756, 5-{2-[(2-fluoro-5-methylphenyl)amino]-4-[3-(trifluoromethyl)-1H-pyrazol-1-yl]pyrimidin-5-yl}-2-methoxypyridine-3-carboxylic acid]
inhibition at 13 µM: 56%

COc1ncc(-c2cnc(Nc3cc(C)ccc3F)nc2-n2nc(C(F)(F)F)cc2C)cc1C(=O)O [Example 757, 5-{2-[(2-fluoro-5-methylphenyl)amino]-4-[5-methyl-3-(trifluoromethyl)-1H-pyrazol-01-yl]pyrimidin-5-yl}-2-methoxypyridine-3-carboxylic acid]
inhibition at 13 µM: 19%

COc1cc(Cl)cc(Nc2ncc(-c3cnc(OC)c(C(=O)O)c3)c(-n3ccc(C(F)(F)F)n3)n2)c1 [Example 758, 5-{2-[(3-chloro-5-methoxyphenyl)amino]-4-[3-(trifluoromethyl)-1H-pyrazol-1-yl]pyrimidin-5-yl}-2-methoxypyridine-3-carboxylic acid]
inhibition at 13 µM: 98%

COc1cc(Cl)cc(Nc2ncc(-c3cnc(OC)c(C(=O)O)c3)c(-n3nc(C(F)(F)F)cc3C)n2)c1 [Example 759, 5-{2-[(3-chloro-5-methoxyphenyl)amino]-4-[5-methyl-3-(trifluoromethyl)-1H-pyrazol-1-yl]pyrimidin-5-yl}-2-methoxypyridine-3-carboxylic acid]
inhibition at 13 µM: 100%

COc1cc(C)cc(Nc2ncc(-c3cnc(OC)c(C(=O)O)c3)c(-n3ccc(C(F)(F)F)n3)n2)c1 [Example 760]
inhibition at 13 µM: 100%

COc1cc(C)cc(Nc2ncc(-c3cnc(OC)c(C(=O)O)c3)c(-n3nc(C(F)(F)F)cc3C)n2)c1 [Example 761, 2-methoxy-5-{2-[(3-methoxy-5-methylphenyl)amino]-4-[5-methyl-3-(trifluoromethyl)-1H-pyrazol-1-yl]pyrimidin-5-yl}pyridine-3-carboxylic acid]
inhibition at 13 µM: 100%

Cc1cc(F)cc(Nc2ncc(-c3cncc(C(=O)O)c3)c(-n3ccc(C(F)(F)F)n3)n2)c1 [Example 770, 5-{2-[(3-fluoro-5-methylphenyl)-amino]-4-[3-(trifluoromethyl)-1H-pyrazol-1-yl]pyrimidin-5-yl}pyridine-3-carboxylic acid]
inhibition at 13 µM: 100%
